Test results reported in patent US20220072009A1, “SHORT-ACTING SELECTIVE GLUCOCORTICOID RECEPTOR MODULATORS” (PANDA CONSULTING LLC, priority 2018, published 2022).

Assays:
male CD-1 mice = experiment: elevated plus maze test (EPM), mouse model of stress-induced anxiety; type: in vivo
Description: Formula III (also referred to as PND-001) as a representative compound out of the class of SASGRMs was tested in a mouse model of stress-induced anxiety, the elevated plus maze test (EPM) (Experiment 1). The EPM relies on the inherent conflict between a rodent's tendency to explore a novel environment on one hand, and the stress of such exploration, resulting in avoidance of the aversive properties of the brightly lit open arms. Compounds that reduce anxiety specifically increase the frequency of entries into the open arms and time spent in the open arms.
Four to five week-old male CD-1 mice were group-housed (6 or 7 mice per cage) and maintained in a room with controlled temperature (21-22° C.) and a reversed light-dark cycle (12 h/12 h; lights on: 17:30-05:30; lights off: 05:30-17:30) with food and water available ad libitum.
Formula III and the vehicle (5% Dimethyl Sulfoxide (DMSO) and 95% Polyethylene Glycol 400 (PEG400)) were s.c. administrated 24 hours and 6 hours prior the EPM trial.
Diazepam was p.o. administrated 60 min prior the EPM trial as a positive control.
Formula III was tested in doses of 10, 30 and 100 mg/kg. Diazepam was p.o administrated 60 min prior the EPM trial and tested in a dose of 1 mg/kg. (see Table 1).
The mice were randomly assigned to one of the different experimental groups. Each animal was identified by its group name, cage number, series (day) of experiment, and a number (from 1 to 12) written with permanent ink on its tail.
The apparatus was a PVC maze covered with Plexiglas and subdivided into four equal exploratory arms (21×8 cm), which are all interconnected by a small platform (8×8 cm). The apparatus was placed 59 cm above the floor. Two arms are opened and two others are closed with wall (high: 21 cm).
After compound administration, mouse was placed on the platform opposite a closed arm. The number of entries and the time spent in each arm were recorded during a 5 min period. The animal was considered as entered in an arm when it places its four paws in the arm.
Analysis of variance (ANOVA) was performed on the result data. Fisher's PLSD was used for pairwise comparisons and p value ≤0.05 were considered significant.
In the next experiment in the Elevated Plus Maze Test (Experiment 2; conducted as described under the same experimental procedures and analysis as described for Experiment 1), the efficacy of Formula III (also referred to as PND001) at lower doses was studied. […] Compounds or vehicle (5% Dimethyl Sulfoxide (DMSO) and 95% Polyethylene Glycol 400 (PEG400)) were administrated s.c. 24 hours and 6 hours prior the EPM trial (Table 3).
Formula III (PND 001) was tested in doses of 1, 3 and 10 mg/kg. Formula IV (PND 002) was tested in doses of 30 mg/kg. Diazepam was p.o administrated 60 min prior the EPM trial as positive control and tested in a dose of 1 mg/kg.
In a third experiment in the Elevated Plus Maze Test (Experiment 3), conducted as described under the same experimental procedures and analysis as described for Experiment 1, the effect of the dosing route and regimen was investigated. Formula III (also referred to as PND001) and the vehicle (5% Dimethyl Sulfoxide (DMSO) and 95% Polyethylene Glycol 400 (PEG400)) were administrated by gavage (p.o.). Diazepam was i.p. administrated 30 min prior the EPM trial as positive control.
PND 001 was tested in doses of 3 mg/kg which had the highest efficacy in Experiment 2, and administrated either twice at 6 h and 1 h before the EPM trial, or given only once at 1 h before the trial. Diazepam was i.p. administrated 30 min prior the EPM trial and tested in a dose of 1 mg/kg. (see Table 5).

corticosterone = conditions: mouse, in vivo, po, 30 mg/kg
rat hepatocytes = conditions: in vitro, reported; cited from earlier work
MDCK cell monolayers = conditions: pH 7.4
Description: BBB penetration is assessed in vitro using confluent MDCK cell monolayers and dosing of 504 of test compounds on apical and basolateral side of the monolayer at pH 7.4 for 90 min. The apparent permeability in both directions, and the efflux ratio is determined after subjecting samples to LC-MS/MS analysis.

[1] = reported, cited from earlier work
rat plasma proteins = conditions: reported; cited from earlier work
human plasma proteins = conditions: reported; cited from earlier work
[2] = Experiment 1, 1 mg/kg po 60 min
[3] = Experiment 2, 1 mg/kg po 60 min
[4] = Experiment 3, 1 mg/kg ip 30 min
[5] = Experiment 3, 1 mg/kg, 30 min, ip
[6] = Experiment 2, 30 mg/kg sc 24 h and 6 h
[7] = Experiment 2, 30 mg/kg, 24 + 6 h, sc

## CN1C(=O)CN=C(c2ccccc2)c2cc(Cl)ccc21 [Diazepam, reference compound]
Male CD-1 mice; [2]
  increase in number of entries to the open arms compared to vehicle treated mice: 233%
  increase in time spent in the open arms compared to vehicle treated mice: 327%
Male CD-1 mice; Experiment 1, 1 mg/kg, 1 h, po
  Number of entries in the open arm, Mean: 10.0 n
  Time spent in the open arm, Mean: 59.6 s
Male CD-1 mice; [3]
  increase in number of entries into the open arms compared to vehicle treated mice: 146%
  increase in time spent into the open arms compared to vehicle treated mice: 151%
Male CD-1 mice; Experiment 2, 1 mg/kg, 1 h, po
  Number of entries in the open arm, Mean: 14.0 n
  Time spent in the open arm, Mean: 84.6 s
Male CD-1 mice; [4]
  increase in number of entries into the open arms compared to vehicle treated mice: 400%
  increase in time spent into the open arms compared to vehicle treated mice: 270%
Male CD-1 mice; [5]
  Number of entries in the open arm, Mean: 23.2 n
  Time spent in the open arm, Mean: 116.9 s

## CC#C[C@]1(O)CCC2C3CCC4=CC(=O)CC[C@]4(Cc4ccc(C)cc4)C3=CC[C@@]21C (stereo partly drawn) [Formula I, (10R,13S,17S)-17-hydroxy-13-methyl-10-[(4-methylphenyl)methyl]-17-prop-1-ynyl-2,6,7,8,12,14,15,16-octahydro-1H-cyclopenta[a]phenanthrene-3-one]
corticosterone
  corticosterone increase: not found to be significantly increased
Rat hepatocytes
  half life in rat hepatocytes: less than 0.2 h
MDCK cell monolayers
  BBB penetration potential: moderate to high
[1]; in vitro
  half life in rat liver microsomes: 19.8 min

## C[C@]12CCC3C(C[C@H]4OC[C@@]35CCC(=O)C=C45)C1CC[C@@H]2C(=O)CO (some centres unmarked) [Formula II]
corticosterone
  corticosterone increase: not found to be significantly increased
MDCK cell monolayers
  BBB penetration potential: moderate to high

## CCCCCCNC(=O)[C@@]1(O)[C@H](C)CC2[C@@H]3CCC4=CC(=O)C=C[C@]4(C)[C@@]3(F)[C@@H](O)C[C@@]21C (some centres unmarked) [Formula IV]
corticosterone
  corticosterone increase: not found to be significantly increased
MDCK cell monolayers
  BBB penetration potential: moderate to high
Male CD-1 mice; [6]
  increase in number of entries into the open arms compared to vehicle treated mice: 77%
  increase in time spent into the open arms compared to vehicle treated mice: 90%
Male CD-1 mice; [7]
  Number of entries in the open arm, Mean: 10.1 n
  Time spent in the open arm, Mean: 64.1 s
[1]
  conversion to unidentified metabolites in rat liver microsomes (time): ≤ 30 min

## C[C@]12C=CC(=O)C=C1CCC1C2OC[C@@]2(C)C1CC[C@]2(O)C(=O)CO (some centres unmarked) [Formula V]
corticosterone
  corticosterone increase: not found to be significantly increased
MDCK cell monolayers
  BBB penetration potential: moderate to high

## CC#C[C@]1(O)CC[C@H]2[C@@H]3CCC4=CC(=O)CCC4=C3[C@@H](c3ccc(N(C)C)cc3)C[C@@]21C [mifepristone]
Rat plasma proteins
  plasma protein binding, rat serum: over 95%
Human plasma proteins
  plasma protein binding, human serum: over 95%
